Results: ChEMBL document CHEMBL5257050, “Structure Revisions of Phenolic Bisabolane Sesquiterpenes and a Ferroptosis Inhibitor from the Marine-Derived Fungus Aspergillus versicolor YPH93” (J Nat Prod, 2023)
pEC50: −log10 of the molar value. Active and inactive are the calls of the source. The calls are words filed in the database; no cut-off is given here.

Tested on: HT-1080
Experiment: Anti-ferroptotic activity against erastin-induced ferroptosis in human HT-1080 cells assessed as cell viability pretreated for 0.5 hrs followed by erastin stimulation by Cell-titer-glo assay
Type: functional, cell-based
Conditions: not given

Row | pEC50 | Structure (SMILES)
1 | 5.47 | C/C(=C\CCC(C)(O)CO)c1ccc(C(=O)O)cc1O (stereo not given)

Tested on: CCRF-CEM
Experiment: Induction of necrosis in H2O2-induced human CCRF-CEM cells at 10 uM pretreated for 0.5 hrs followed by H2O2 stimulation by Cell-titer-glo assay
Type: functional, cell-based
Conditions: not given

Row | Structure (SMILES) | Activity
2 | CC(=O)OCC(C)(O)CCCC(C)(O)c1ccc(C(=O)O)cc1O (stereo not given) | inactive
3 | C[C@]1(CO)CCC[C@](C)(c2ccc(C(=O)O)cc2O)O1 | inactive
4 | CC1(C)O[C@@](C)(c2ccc(C(=O)O)cc2O)C[C@H](O)[C@H]1O (relative stereo) | inactive
5 | C/C(=C/CCC(C)(C)O)c1ccc(C(=O)O)cc1O | inactive
6 | Cc1cccc(O)c1-c1cc(O)c(C)c(=O)o1 | inactive
7 | CC(C)(O)CCCC(C)(O)c1ccc(C(=O)O)cc1O (stereo not given) | inactive
8 | C[C@@]1(CO)CCC[C@](C)(c2ccc(C(=O)O)cc2O)O1 (relative stereo) | inactive
9 | CC(=O)OC[C@@]1(C)CCC[C@](C)(c2ccc(C(=O)O)cc2O)O1 (relative stereo) | inactive
10 | CC1(C)O[C@@](C)(c2ccc(C(=O)O)cc2O)[C@H](O)C[C@@H]1O (relative stereo) | inactive
11 | CC(CCCC(C)(O)c1ccc(C(=O)O)cc1O)C(=O)O (stereo not given) | inactive
12 | CC(=O)OC[C@@]1(C)CCC[C@@](C)(c2ccc(C(=O)O)cc2O)O1 | inactive
13 | CC1(C)O[C@@](C)(c2ccc(C(=O)O)cc2O)C[C@H](O)[C@@H]1O (relative stereo) | inactive
14 | CC1(c2ccc(C(=O)O)cc2O)CCC(=O)O1 (stereo not given) | inactive
15 | CC(O)(CO)CCCC(C)(O)c1ccc(C(=O)O)cc1O (stereo not given) | inactive
16 | CC1(C)CCC[C@](C)(c2ccc(C(=O)O)cc2O)O1 | inactive
17 | C/C(=C\CCC(C)(O)CO)c1ccc(C(=O)O)cc1O (stereo not given) | inactive
18 | C[C@]1(c2ccc(C(=O)O)cc2O)CC[C@H](O)[C@](C)(CO)O1 (relative stereo) | inactive

Tested on: HT-1080
Experiment: Anti-ferroptotic activity against RSL3-induced ferroptosis in human HT-1080 cells assessed as cell viability pretreated for 0.5 hrs followed by RSL3 stimulation by Cell-titer-glo assay
Type: functional, cell-based
Conditions: not given

Row | pEC50 | Structure (SMILES)
19 | 5.68 | C/C(=C\CCC(C)(O)CO)c1ccc(C(=O)O)cc1O (stereo not given)

Tested on: CCRF-CEM
Experiment: Anti-necroptosis activity against TNFalpha-induced human CCRF-CEM cells assessed as cell viability at 10 uM pretreated for 0.5 hrs followed by TNFalpha stimulation by Cell-titer-glo assay
Type: functional, cell-based
Conditions: not given

Row | Structure (SMILES) | Activity
20 | CC(=O)OCC(C)(O)CCCC(C)(O)c1ccc(C(=O)O)cc1O (stereo not given) | inactive
21 | C[C@]1(CO)CCC[C@](C)(c2ccc(C(=O)O)cc2O)O1 | inactive
22 | CC1(C)O[C@@](C)(c2ccc(C(=O)O)cc2O)C[C@H](O)[C@H]1O (relative stereo) | inactive
23 | C/C(=C/CCC(C)(C)O)c1ccc(C(=O)O)cc1O | inactive
24 | Cc1cccc(O)c1-c1cc(O)c(C)c(=O)o1 | inactive
25 | CC(C)(O)CCCC(C)(O)c1ccc(C(=O)O)cc1O (stereo not given) | inactive
26 | C[C@@]1(CO)CCC[C@](C)(c2ccc(C(=O)O)cc2O)O1 (relative stereo) | inactive
27 | CC(=O)OC[C@@]1(C)CCC[C@](C)(c2ccc(C(=O)O)cc2O)O1 (relative stereo) | inactive
28 | CC1(C)O[C@@](C)(c2ccc(C(=O)O)cc2O)[C@H](O)C[C@@H]1O (relative stereo) | inactive
29 | CC(CCCC(C)(O)c1ccc(C(=O)O)cc1O)C(=O)O (stereo not given) | inactive
30 | CC(=O)OC[C@@]1(C)CCC[C@@](C)(c2ccc(C(=O)O)cc2O)O1 | inactive
31 | CC1(C)O[C@@](C)(c2ccc(C(=O)O)cc2O)C[C@H](O)[C@@H]1O (relative stereo) | inactive
32 | CC1(c2ccc(C(=O)O)cc2O)CCC(=O)O1 (stereo not given) | inactive
33 | CC(O)(CO)CCCC(C)(O)c1ccc(C(=O)O)cc1O (stereo not given) | inactive
34 | CC1(C)CCC[C@](C)(c2ccc(C(=O)O)cc2O)O1 | inactive
35 | C/C(=C\CCC(C)(O)CO)c1ccc(C(=O)O)cc1O (stereo not given) | inactive
36 | C[C@]1(c2ccc(C(=O)O)cc2O)CC[C@H](O)[C@](C)(CO)O1 (relative stereo) | inactive

Tested on: HT-1080
Experiment: Anti-ferroptotic activity against erastin/RSL3-induced ferroptosis in human HT-1080 cells assessed as cell viability at 1 uM pretreated for 0.5 hrs followed by erastin/RSL3 stimulation by Cell-titer-glo assay
Type: functional, cell-based
Conditions: not given

Row | Structure (SMILES) | Activity
37 | CCOC(=O)c1ccc(NC2CCCCC2)c(N)c1 | Active

Tested on: not listed separately
Experiment: Antioxidant activity assessed as DPPH radical scavenging activity at 10 uM measured for 30 mins relative to control
Type: functional
Conditions: not given

Row | Structure (SMILES) | Activity
38 | CC(=O)OCC(C)(O)CCCC(C)(O)c1ccc(C(=O)O)cc1O (stereo not given) | Active
39 | C[C@]1(CO)CCC[C@](C)(c2ccc(C(=O)O)cc2O)O1 | Active
40 | CC1(C)O[C@@](C)(c2ccc(C(=O)O)cc2O)C[C@H](O)[C@H]1O (relative stereo) | Active
41 | C/C(=C/CCC(C)(C)O)c1ccc(C(=O)O)cc1O | Active
42 | Cc1cccc(O)c1-c1cc(O)c(C)c(=O)o1 | Active
43 | CC(C)(O)CCCC(C)(O)c1ccc(C(=O)O)cc1O (stereo not given) | Active
44 | C[C@@]1(CO)CCC[C@](C)(c2ccc(C(=O)O)cc2O)O1 (relative stereo) | Active
45 | CC(=O)OC[C@@]1(C)CCC[C@](C)(c2ccc(C(=O)O)cc2O)O1 (relative stereo) | Active
46 | CC1(C)O[C@@](C)(c2ccc(C(=O)O)cc2O)[C@H](O)C[C@@H]1O (relative stereo) | Active
47 | CCOC(=O)c1ccc(NC2CCCCC2)c(N)c1 | Active
48 | CC(CCCC(C)(O)c1ccc(C(=O)O)cc1O)C(=O)O (stereo not given) | Active
49 | CC(=O)OC[C@@]1(C)CCC[C@@](C)(c2ccc(C(=O)O)cc2O)O1 | Active
50 | CC1(C)O[C@@](C)(c2ccc(C(=O)O)cc2O)C[C@H](O)[C@@H]1O (relative stereo) | Active
51 | CC1(c2ccc(C(=O)O)cc2O)CCC(=O)O1 (stereo not given) | Active
52 | CC(O)(CO)CCCC(C)(O)c1ccc(C(=O)O)cc1O (stereo not given) | Active
53 | CC1(C)CCC[C@](C)(c2ccc(C(=O)O)cc2O)O1 | Active
54 | C/C(=C\CCC(C)(O)CO)c1ccc(C(=O)O)cc1O (stereo not given) | Active
55 | C[C@]1(c2ccc(C(=O)O)cc2O)CC[C@H](O)[C@](C)(CO)O1 (relative stereo) | Active

Tested on: HT-1080
Experiment: Anti-ferroptotic activity against erastin-induced ferroptosis in human HT-1080 cells assessed as cell viability at 10 uM pretreated for 0.5 hrs followed by erastin stimulation by Cell-titer-glo assay
Type: functional
Conditions: read-out: Activity

Row | Structure (SMILES) | viability at 10 µM [%]
56 | CC(=O)OC[C@@]1(C)CCC[C@@](C)(c2ccc(C(=O)O)cc2O)O1 | 50

Tested on: HT-1080
Experiment: Cytotoxicity against human HT-1080 cells assessed as reduction in cell viability at 50 uM measured for 48 hrs by CCK-8 assay
Type: functional, cell-based
Conditions: not given

Row | Structure (SMILES) | Activity
57 | CC(=O)OCC(C)(O)CCCC(C)(O)c1ccc(C(=O)O)cc1O (stereo not given) | inactive
58 | C[C@]1(CO)CCC[C@](C)(c2ccc(C(=O)O)cc2O)O1 | inactive
59 | CC1(C)O[C@@](C)(c2ccc(C(=O)O)cc2O)C[C@H](O)[C@H]1O (relative stereo) | inactive
60 | C/C(=C/CCC(C)(C)O)c1ccc(C(=O)O)cc1O | inactive
61 | Cc1cccc(O)c1-c1cc(O)c(C)c(=O)o1 | inactive
62 | CC(C)(O)CCCC(C)(O)c1ccc(C(=O)O)cc1O (stereo not given) | inactive
63 | C[C@@]1(CO)CCC[C@](C)(c2ccc(C(=O)O)cc2O)O1 (relative stereo) | inactive
64 | CC(=O)OC[C@@]1(C)CCC[C@](C)(c2ccc(C(=O)O)cc2O)O1 (relative stereo) | inactive
65 | CC1(C)O[C@@](C)(c2ccc(C(=O)O)cc2O)[C@H](O)C[C@@H]1O (relative stereo) | inactive
66 | CC(CCCC(C)(O)c1ccc(C(=O)O)cc1O)C(=O)O (stereo not given) | inactive
67 | CC(=O)OC[C@@]1(C)CCC[C@@](C)(c2ccc(C(=O)O)cc2O)O1 | inactive
68 | CC1(C)O[C@@](C)(c2ccc(C(=O)O)cc2O)C[C@H](O)[C@@H]1O (relative stereo) | inactive
69 | CC1(c2ccc(C(=O)O)cc2O)CCC(=O)O1 (stereo not given) | inactive
70 | CC(O)(CO)CCCC(C)(O)c1ccc(C(=O)O)cc1O (stereo not given) | inactive
71 | CC1(C)CCC[C@](C)(c2ccc(C(=O)O)cc2O)O1 | inactive
72 | C/C(=C\CCC(C)(O)CO)c1ccc(C(=O)O)cc1O (stereo not given) | inactive
73 | C[C@]1(c2ccc(C(=O)O)cc2O)CC[C@H](O)[C@](C)(CO)O1 (relative stereo) | inactive

Tested on: HT-1080
Experiment: Anti-ferroptotic activity against erastin/RSL3-induced ferroptosis in human HT-1080 cells assessed as cell viability at 10 uM pretreated for 0.5 hrs followed by erastin/RSL3 stimulation by Cell-titer-glo assay
Type: functional, cell-based
Conditions: not given

Row | Structure (SMILES) | Activity
74 | C/C(=C\CCC(C)(O)CO)c1ccc(C(=O)O)cc1O (stereo not given) | Active

Tested on: CCRF-CEM
Experiment: Anti-ferroptotic activity against RSL3-induced ferroptosis in human CCRF-CEM cells assessed as cell viability at 10 uM pretreated for 0.5 hrs followed by RSL3 stimulation by Cell-titer-glo assay
Type: functional, cell-based
Conditions: not given

Row | Structure (SMILES) | Activity
75 | C/C(=C\CCC(C)(O)CO)c1ccc(C(=O)O)cc1O (stereo not given) | Active
